Test results taken from US20260345596A1, “TREATMENT OF LOCALLY ADVANCED OR METASTATIC UROTHELIAL CARCINOMA WITH ERDAFINITIB” (priority 2023, published 2026).
Where “and” joins values, the source holds several entries; their conditions need not be identical. Equal values may be shown once. Marks after values point to notes of the source that are not given here.

Test: Study BLC3001 (NCT03390504, THOR) Cohort 1: safety, adverse events, laboratory abnormalities and exposure
[1] = adverse events leading to death
[2] = any grade, adverse events of interest
[3] = any grade, serious adverse events, any cause
[4] = grade 3-4 adverse events of interest
[5] = leading to treatment discontinuation

COc1cc(OC)cc(N(CCNC(C)C)c2ccc3ncc(-c4cnn(C)c4)nc3c2)c1 [Erdafitinib, N-(3,5-dimethoxyphenyl)-N′-(1-methylethyl)-N-[3-(1-methyl-1H-pyrazol-4-yl)quinoxalin-6-yl]ethane-1,2-diamine]
Aspartate aminotransferase increased (Grade ≥3, treatment-related): 2 (1.5) no. (%) | Asthenia (Grade ≥3, treatment-related): 0 no. (%) | Constipation (Grade ≥3, treatment-related): 0 no. (%) | Decreased appetite (Grade ≥3, treatment-related): 3 (2.2) no. (%) | Diarrhea (Grade ≥3, treatment-related): 4 (3.0) no. (%) | Dry eye (Grade ≥3, treatment-related): 0 no. (%) | Dry mouth (Grade ≥3, treatment-related): 0 no. (%) | Dry skin (Grade ≥3, treatment-related): 2 (1.5) no. (%) | Dysgeusia (Grade ≥3, treatment-related): 1 (0.7) no. (%) | Fatigue (Grade ≥3, treatment-related): 0 no. (%) | Hyperphosphatemia (Grade ≥3, treatment-related): 7 (5.2) no. (%) | Nausea (Grade ≥3, treatment-related): 1 (0.7) no. (%) | Neutropenia (Grade ≥3, treatment-related): 0 no. (%) | Onycholysis (Grade ≥3, treatment-related): 8 (5.9) no. (%) | Onychomadesis (Grade ≥3, treatment-related): 2 (1.5) no. (%) | Palmar-plantar erythrodysesthesia syndrome (Grade ≥3, treatment-related): 13 (9.6) no. (%) | Stomatitis (Grade ≥3, treatment-related): 11 (8.1) no. (%) | Atypical pneumonia [1]: 0 no. (%) | Cardiorespiratory arrest [1]: 1 (0.7) no. (%) | Febrile bone marrow aplasia [1]: 0 no. (%) | Febrile neutropenia [1]: 0 no. (%) | Pneumonia necrotizing [1]: 1 (0.7) no. (%) | Renal failure [1]: 1 (0.7) no. (%) | Septic shock [1]: 0 no. (%) | Sudden death [1]: 2 (1.5) no. (%) | Adverse events leading to treatment discontinuation (any cause): 19 (14.1%) no. (%) and 19 (14.1) no. (%) | Central serous retinopathy (any grade): 23 (17.0%) n (%) and 23 (17.0) n (%) | Eye disorders (excluding central serous retinopathy) (any grade): 57 (42.2) n (%) | Nail disorders (any grade): 90 (66.7) n (%) | Skin disorders (any grade): 74 (54.8) n (%) | Central serous retinopathy [2]: 23 (17.0) no. (%) | Chorioretinopathy [2]: 8 (5.9) no. (%) | Detachment of macular retinal pigment epithelium [2]: 1 (0.7) no. (%) | Detachment of retinal pigment epithelium [2]: 7 (5.2) no. (%) | Eye disorders (excluding central serous retinopathy) [2]: 57 (42.2) no. (%) | Macular detachment [2]: 2 (1.5) no. (%) | Nail disorders [2]: 90 (66.7) no. (%) | Retinopathy [2]: 2 (1.5) no. (%) | Skin disorders [2]: 74 (54.8) no. (%) | Subretinal fluid [2]: 5 (3.7) no. (%) | Hematuria [3]: 5 (3.7) no. (%) | Hyponatremia [3]: 3 (2.2) no. (%) | Urinary tract infection [3]: 6 (4.4) no. (%) | Neutropenia (any grade, treatment-emergent): 0 no. | Alanine aminotransferase increased (any grade, treatment-related): 29 (21.5) no. (%) | Alopecia (any grade, treatment-related): 32 (23.7) no. (%) | Anemia (any grade, treatment-related): 16 (11.9) no. (%) | Aspartate aminotransferase increased (any grade, treatment-related): 25 (18.5) no. (%) | Asthenia (any grade, treatment-related): 11 (8.1) no. (%) | Constipation (any grade, treatment-related): 12 (8.9) no. (%) | Decreased appetite (any grade, treatment-related): 28 (20.7) no. (%) | Diarrhea (any grade, treatment-related): 74 (54.8) no. (%) | Dry eye (any grade, treatment-related): 22 (16.3) no. (%) | Dry mouth (any grade, treatment-related): 52 (38.5) no. (%) | Dry skin (any grade, treatment-related): 30 (22.2) no. (%) | Dysgeusia (any grade, treatment-related): 34 (25.2) no. (%) | Fatigue (any grade, treatment-related): 18 (13.3) no. (%) | Hyperphosphatemia (any grade, treatment-related): 106 (78.5) no. (%) | Nausea (any grade, treatment-related): 14 (10.4) no. (%) | Neutropenia (any grade, treatment-related): 0 no. (%) | Onycholysis (any grade, treatment-related): 31 (23.0) no. (%) | Onychomadesis (any grade, treatment-related): 27 (20.0) no. (%) | Palmar-plantar erythrodysesthesia syndrome (any grade, treatment-related): 41 (30.4) no. (%) | Stomatitis (any grade, treatment-related): 62 (45.9) no. (%) | Treatment-related deaths (count): 1 | Central serous retinopathy (grade 3-4): 3 (2.2) n (%) | Eye disorders (excluding central serous retinopathy) (grade 3-4): 3 (2.2) n (%) | Nail disorders (grade 3-4): 15 (11.1) n (%) | Skin disorders (grade 3-4): 16 (11.9) n (%) | Central serous retinopathy [4]: 2.2% | Nail disorders [4]: 11.1% | Skin disorders [4]: 11.9% | Onycholysis (grade ≥3, treatment-related): 5.9% | Palmar-plantar erythrodysesthesia syndrome (grade ≥3, treatment-related): 9.6% | Stomatitis (grade ≥3, treatment-related): 8.1% | Treatment-emergent adverse events that led to death (in vivo): 4.4% | Treatment-related serious adverse events (in vivo): 13.3% | Treatment-related adverse events that led to death (investigator-assessed): 0.7% | Anemia [5]: 0 no. (%) | Any patient with one or more adverse events leading to treatment discontinuation [5]: 19 (14.1) no. (%) | Atypical pneumonia [5]: 0 no. (%) | COVID-19 [5]: 1 (0.7) no. (%) | Cardiorespiratory arrest [5]: 1 (0.7) no. (%) | Detachment of retinal pigment epithelium [5]: 1 (0.7) no. (%) | Diarrhea [5]: 0 no. (%) | Dry skin [5]: 1 (0.7) no. (%) | Dysphagia [5]: 1 (0.7) no. (%) | Dyspnea [5]: 0 no. (%) | Edema peripheral [5]: 0 no. (%) | Extremity necrosis [5]: 1 (0.7) no. (%) | Febrile bone marrow aplasia [5]: 0 no. (%) | Febrile neutropenia [5]: 0 no. (%) | Fractured sacrum [5]: 0 no. (%) | Hematuria [5]: 1 (0.7) no. (%) | Hyponatremia [5]: 0 no. (%) | Hypotension [5]: 1 (0.7) no. (%) | Ileus [5]: 0 no. (%) | Keratitis [5]: 1 (0.7) no. (%) | Nail dystrophy [5]: 1 (0.7) no. (%) | Onycholysis [5]: 2 (1.5) no. (%) | Paronychia [5]: 1 (0.7) no. (%) | Peripheral sensory neuropathy [5]: 0 no. (%) | Pneumonia necrotizing [5]: 1 (0.7) no. (%) | Pneumonitis [5]: 0 no. (%) | Renal failure [5]: 1 (0.7) no. (%) | Sciatica [5]: 0 no. (%) | Septic shock [5]: 0 no. (%) | Sudden death [5]: 2 (1.5) no. (%) | Syncope [5]: 0 no. (%) | Urinary retention [5]: 1 (0.7) no. (%) | Vision blurred [5]: 1 (0.7) no. (%) | Vomiting [5]: 0 no. (%) | Adverse events leading to dose interruption (safety population): 97 (71.9) no. (%) | Adverse events leading to dose reduction (safety population): 93 (68.9) no. (%) | Adverse events of any cause (safety population): 98.5% | Any adverse events (treatment-emergent) (safety population): 133 (98.5%) no. (%) and 133 (98.5) no. (%) | COVID-19-related adverse events (safety population): 12 (8.9) no. (%) | COVID-19-related serious adverse events (safety population): 1 (0.7) no. (%) | Grade 3-4 serious adverse events (safety population): 52 (38.5) no. (%) | Grade 3-4 treatment-related adverse events (safety population): 45.9% | Related adverse events (≥1 treatment-related AE, any grade) (safety population): 131 (97.0) no. (%) | Related adverse events leading to death (safety population): 1 (0.7) no. (%) | Related adverse events leading to dose interruption (safety population): 89 (65.9) no. (%) | Related adverse events leading to dose reduction (safety population): 89 (65.9) no. (%) | Related adverse events leading to treatment discontinuation (safety population): 11 (8.1%)^b no. (%) and 11 (8.1) no. (%) | Related grade 3-4 adverse events (safety population): 62 (45.9) no. (%) | Related grade 3-4 serious adverse events (safety population): 16 (11.9) no. (%) | Related serious adverse events (safety population): 18 (13.3) no. (%) | Adverse events leading to death (treatment-emergent): 6 (4.4%) no. (%) and 6 (4.4) no. (%) | Grade 3-4 adverse events (treatment-emergent): 85 (63.0%) no. (%) and 85 (63.0) no. (%) | Serious adverse events (treatment-emergent): 56 (41.5%) no. (%) and 56 (41.5) no. (%) | Clinically important TEAEs (treatment-emergent, any grade): 125 (92.6%) n (%) | Eye disorders leading to discontinuation (treatment-related AEs): ^bMost frequent treatment-related AEs leading to discontinuation of erdafitinib included eye disorders (3 patients) and skin and subcutaneous disorders (3 patients). | Diarrhea (treatment-related, any grade): 74 (54.8) n (%) | Dry mouth (treatment-related, any grade): 52 (38.5) n (%) | Hyperphosphatemia (treatment-related, any grade): 106 (78.5) n (%) | Onycholysis (treatment-related, any grade): 31 (23.0) n (%) | PPE syndrome (treatment-related, any grade): 41 (30.4) n (%) | Stomatitis (treatment-related, any grade): 62 (45.9) n (%) | Diarrhea (treatment-related, grade 3-4): 4 (3.0) n (%) | Dry mouth (treatment-related, grade 3-4): 0 n (%) | Hyperphosphatemia (treatment-related, grade 3-4): 7 (5.2) n (%) | Onycholysis (treatment-related, grade 3-4): 8 (5.9) n (%) | PPE syndrome (treatment-related, grade 3-4): 13 (9.6) n (%) | Stomatitis (treatment-related, grade 3-4): 11 (8.1) n (%) | Lowering of discontinuation due to treatment-related adverse events (versus chemotherapy): about 5.3%
